Results: US7666901B2, “Analogs of 17-hydroxywortmannin as PI3K inhibitors” (Wyeth, priority 2004, dated 2010)
Values after ≈ are worked out from the molar mass of the structure shown.

Columns and labels:
Human TOR = target: T1, Human TOR (Homo sapiens, UniProt P42345); test: Human TOR (mTOR) kinase assay, DELFIA format; type: biochemical
T1 construct: FLAG
Procedure: The PI3K/AKT/TOR pathway is critical for cell proliferation, growth, survival, and angiogensis. Accordingly, compounds of the present invention may also be useful to inhibit TOR activity. Similar in vivo and in vitro assays to those described above with reference to PI3K can be used to determine the minimum concentration of compound sufficient to inhibit TOR. A human TOR assay and a Rat1-IGF1 assay as described in Examples 67 and 68, respectively was performed with some embodiments of the invention. The results of these assays are shown below in Tables 1 and 2.
Human TOR assays (See Toral-Barza, et al. Biochem Biophys. Res. Commun. 2005 Jun. 24; 332(1):304-10) with purified enzyme are performed in 96-well plates by DELFIA format as follows. Enzymes are first diluted in kinase assay buffer (10 mM Hepes (pH 7.4), 50 mM NaCl, 50 mM b-glycerophosphate, 10 mM MnCl2, 0.5 mM DTT, 0.25 mM microcystin LR, and […] BSA). To each well, 12 mL of the diluted enzyme is mixed briefly with 0.5 mL test inhibitor or control vehicle dimethylsulfoxide (DMSO). The kinase reaction is initiated by adding 12.5 mL kinase assay buffer containing ATP and His6-S6K to give a final reaction volume of 25 mL containing 800 ng/mL FLAG-TOR, […] ATP and […] His6-S6K. The reaction plate is incubated for 2 hours (linear at 1-6 hours) at room temperature with gentle shaking and then terminated by adding 25 mL Stop buffer (20 mM Hepes (pH 7.4), 20 mM EDTA, 20 mM EGTA). The DELFIA detection of the phosphorylated (Thr-389) His6-S6K is performed at room temperature using a monoclonal anti-P(T389)-p70S6K antibody (1A5, Cell Signaling) labeled with Europium-N1-ITC (Eu) (10.4 Eu per antibody, PerkinElmer). The DELFIA Assay buffer and Enhancement solution can be purchased from PerkinElmer. 45 mL of the terminated kinase reaction mixture is transferred to a MaxiSorp plate (Nunc) containing 55 mL PBS. The His6-S6K is allowed to attach for 2 hours after which the wells are aspirated and washed once with PBS. 100 mL of DELFIA Assay buffer with 40 ng/mL Eu-P(T389)-S6K antibody is added. The antibody binding is continued for 1 hour with gentle agitation. The wells are then aspirated and washed 4 times with PBS containing 0.05% Tween-20 (PBST). […] of DELFIA Enhancement solution is added to each well and the plates are read in a PerkinElmer Victor model plate reader. Data obtained is used to calculate enzymatic activity and enzyme inhibition by potential inhibitors.

[1] = system: phosphor-AKT (S473) in Rat1 cells; test: Rat1-IGF1 assay (IGF-1 induced phospho-AKT immunoblot); type: cell-based, rat; conditions: Rattus norvegicus
Procedure: Rat1 cells are plated in 6-well culture plates and serum-starved for 24 hours. Serum-starved cells are treated either with control vehicle or with various concentrations of 17-HWT for 2 hours, stimulated by IGF-1 (100 ng/mL) for 30 minutes. Total cellular lysates are prepared using NuPAGE-LDS sample buffer (Invitrogen), sonicated and then clarified by centrifugation. Equal amounts of proteins are subject to immunoblotting analysis using NuPAGE electrophoresis system and probed with phosphor-AKT (S473), total AKT antibodies (Signaling Technology).

[2] = system: LNCaP (human prostate carcinoma); test: Cell proliferation (MTS) assay, LNCaP; type: cell-based; conditions: three days treatment; for IC50: Homo sapiens, LNCaP, 72 h
Procedure: (§1) Results of cell proliferation assays for exemplary compounds are shown below in Tables 1 and 2. Cell lines LNCaP (human prostate carcinoma), MDA468 (human breast cancer cell), MDA435 (human breast adenocarcinoma), and DU145 (human prostate carcinoma[…]) were purchased from American Type Culture Collection (ATCC) (Rockville, Md.). Cells were cultured in RPMI Medium 1640 containing 10% fetal bovine serum (FBS) in a 37° C. incubator containing 5% CO2. All cell culture reagents were purchased from Gibco-BRL (Grand Island, N.Y.). Cells were plated in 96-well culture plates at about 3000 cells per well. One day following plating, compounds or vehicle controls (buffer only) were added to cells. Proliferation assays were performed three days post initiation of treatment.
(§2) For a non-radioactive cell proliferation assay, viable cell densities are determined by measuring metabolic conversion (by viable cells) of the dye MTS tatrazolium dye, a cell proliferation assay known by one of skill in the art (MTS assay), a previously established cell proliferation assay. The assay is performed using an assay kit (Promega Corp., Madison, Wis.). The assay plates are incubated for 1-2 hours, and the results are read in a 96-well format plate reader by measuring absorbance at 490 nm. Effect of each compound is calculated as a percentage of control cell growth obtained from vehicle-treated cells grown in the same plate.

[3] = system: MDA468 (human breast cancer cell); test: Cell proliferation (MTS) assay, MDA468; type: cell-based; conditions: three days treatment; for IC50: Homo sapiens, 72 h
Procedure: as §1, §2

[4] = system: MDA435 (human breast adenocarcinoma); test: Cell proliferation (MTS) assay, MDA435; type: cell-based; conditions: three days treatment; for IC50: Homo sapiens, MDA435, 72 h
Procedure: as §1, §2

[5] = system: DU145 (human prostate carcinoma/lymphocytic leukemia); test: Cell proliferation (MTS) assay, DU145; type: cell-based; conditions: three days treatment; for IC50: Homo sapiens, DU-145, 72 h
Procedure: as §1, §2

PI3K = system: T2, PI3K; test: Fluorescence polarization assay for PI3K; type: biochemical; conditions: for PI3K FP IC50: Table 1
T2 construct: PI3K FP IC50
Procedure: This assay is used to determine the IC50 of compounds of the present invention as it identifies inhibitors of PI3 kinase by measuring inhibition.
The assay is run by placing 5 μL of diluted enzyme per well, then 5 μL of diluted compound (or 9.5 μL enzyme then 0.5 μL compound in DMSO) is added and mixed. Then, 10 μL substrate is added to start the reaction. The samples are incubated 30-60 minutes, then the reaction is stopped by adding 20 μL stop/detector mix.
PI3K is diluted with reaction buffer (e.g., 5 μL or 7.5 μL PI3K into 620 μL reaction buffer), and 5 μL of diluted enzyme is used per well. 5 μL reaction buffer or drug diluted in buffer (e.g., 4 μL/100 so final DMSO is 1% in reaction) is added to each. The samples are mixed by pipetting up and down. Alternatively, the enzyme can be diluted to 1215 μL. In this case 9.8 μL is added per well and 0.2 μL compound is added in DMSO.
To prepare 1 mL of substrate solution, 955 μL reaction buffer, 40 μL PIP2, and 2.5 μL ATP are mixed. 10 μL of substrate is added to each well to start the reaction.
Stop/detector mix is prepared by mixing 4 μL Red detector and 1.6 μL or 2.0 μL GST-GRP with 1 mL Stop buffer, which results in 10 nM probe and 70 nM GST-GRP). 20 μL of the stop/detector mix is added to each well to stop the reaction. The plates are read after 30-90 minutes keeping the red probe solutions dark.
For the zero time point, stop/detector mix is added to the enzyme just before adding substrate. For an extra control, stop/detector mix is added to buffer (no enzyme) and substrate or to just buffer (no substrate).
The recommended reaction has 0.06 μL per 20 μL (0.015 μg/20 μL) or 0.01125 μg/15 μL or 0.75 μg/mL.
Plates are read on machines with filters for Tamra. The units are mP with no enzyme controls reading app 190-220 mP units. Fully active enzyme reduces fluorescence polarization down to 70-100 mP after 30 minutes. An active cpd raises the mP values halfway to control or to 120-150 mP units.

| Molecule | IC50 (Human TOR; Table 1) [nM] | IC50 (Human TOR; Table 2) [nM] | IC50 ([1]; Table 1) [µg/mL] | IC50 ([2]; Table 1) [µg/mL] | IC50 ([2]; Table 2) [µg/mL] | IC50 ([3]; Table 1) [µg/mL] | IC50 ([3]; Table 2) [µg/mL] | IC50 ([4]; Table 1) [µg/mL] | IC50 ([4]; Table 2) [µg/mL] | IC50 ([5]; Table 1) [µg/mL] | IC50 ([5]; Table 2) [µg/mL] | IC50 ([1]; Table 2) [µg/mL] | IC50 (PI3K; Table 2) [nM] | TOR IC50 (Human TOR; Table 1) [µg/mL] | PI3K FP IC50 (PI3K) [µg/mL] | LNCaP IC50 ([2]; Table 1) [µg/mL] | MDA468 IC50 ([3]; Table 1) [µg/mL] | MDA435 IC50 ([4]; Table 1) [µg/mL] | DU145 IC50 ([5]; Table 1) [µg/mL] |
| --- | --- | --- | --- | --- | --- | --- | --- | --- | --- | --- | --- | --- | --- | --- | --- | --- | --- | --- | --- |
| COC[C@H]1OC(=O)/C(=C/N(C)CCCN(C)C)C2=C(O)C(=O)C3=C([C@H](OC(C)=O)C[C@@]4(C)C3CC[C@@H]4O)[C@]21C (stereo partly drawn) [Compound 5, (1E,4S,4aR,5R,6aS,7S)-1-{[[3-(dimethylamino)propyl](methyl)amino]methylene}-7,11-dihydroxy-4-(methoxymethyl)-4a,6a-dimethyl-2,10-dioxo-1,2,4,4a,5,6,6a,7,8,9,9a,10-dodecahydroindeno[4,5-h]isochromen-5-yl acetate] | 2560 | 1280 | 0.02 | 0.4 | 0.28 | 1.8 | 2 | 15 | 8.2 | 10 | 9.5 |  |  |  |  |  |  |  |  |
| COC[C@H]1OC(=O)/C(=C/N2CCN(C3CCCCC3)CC2)C2=C(O)C(=O)C3=C([C@H](OC(C)=O)C[C@@]4(C)C3CC[C@@H]4O)[C@]21C (stereo partly drawn) [Compound 7, (1E,4S,4aR,5R,6aS,7S)-1-[(4-cyclohexylpiperazin-1-yl)methylene]-7,11-dihydroxy-4-(methoxymethyl)-4a,6a-dimethyl-2,10-dioxo-1,2,4,4a,5,6,6a,7,8,9,9a,10-dodecahydroindeno[4,5-h]isochromen-5-yl acetate] | 818 |  | 0.02 | 0.88 |  | 2 |  | > 15 |  | > 15 |  |  |  |  |  |  |  |  |  |
| CCCCN(C)/C=C1/C(=O)O[C@H](COC)[C@@]2(C)C1=C(O)C(=O)C1=C2[C@H](OC(C)=O)C[C@@]2(C)C1CC[C@@H]2O (stereo partly drawn) [Compound 8, (1E,4S,4aR,5R,6aS,7S)-1-{[butyl(methyl)amino]methylene}-7,11-dihydroxy-4-(methoxymethyl)-4a,6a-dimethyl-2,10-dioxo-1,2,4,4a,5,6,6a,7,8,9,9a,10-dodecahydroindeno[4,5-h]isochromen-5-yl acetate] | 8310 | 9080 | 0.1 | 0.09 | 0.12 | 0.6 | 0.9 | 5 | 3.1 | 2 | 1.3 |  |  |  |  |  |  |  |  |
| COC[C@H]1OC(=O)/C(=C\NCCOCCOCCNC(=O)CCCC[C@H]2SC[C@H]3NC(=O)N[C@H]32)C2=C(O)C(=O)C3=C([C@H](OC(C)=O)C[C@@]4(C)C3CC[C@@H]4O)[C@]21C (stereo partly drawn) [Compound 51, (1Z,4S,4aR,5R,6aS,7S)-7,11-dihydroxy-4-(methoxymethyl)-4a,6a-dimethyl-2,10-dioxo-1-{12-oxo-16-[(3aR,4R,6aS)-2-oxohexahydro-1H-thieno[3,4-d]imidazol-4-yl]-5,8-dioxa-2,11-diazahexadec-1-ylidene}-1,2,4,4a,5,6,6a,7,8,9,9a,10-dodecahydroindeno[4,5-h]isochromen-5-yl acetate] |  |  |  |  | 2.8 |  | 30 |  |  |  |  | > 0.2 |  |  |  |  |  |  |  |
| COC[C@H]1OC(=O)/C(=C/N(C)CCCN(C)C)C2=C(O)C(=O)C3=C([C@H](O)C[C@@]4(C)C3CC[C@@H]4O)[C@]21C (stereo partly drawn) [Compound 60, (1E,4S,4aR,5R,6aS,7S)-1-{[[3-(dimethylamino)propyl](methyl)amino]methylene}-5,7,11-trihydroxy-4-(methoxymethyl)-4a,6a-dimethyl-4a,5,6,6a,7,8,9,9a-octahydroindeno[4,5-h]isochromene-2,10(1H,4H)-dione] |  | 396 |  |  | 0.33 (≈ 0.654 µM) |  | 2 (≈ 3.96 µM) |  |  |  |  |  | 7 |  |  |  |  |  |  |
| (1E,4S,4aR,5R,6aS,7S)-1-[(diallylamino)methylene]-7-(formyloxy)-11-hydroxy-4-(methoxymethyl)-4a,6a-dimethyl-2,10-dioxo-1,2,4,4a,5,6,6a,7,8,9,9a,10-dodecahydroindeno[4,5-h]isochromen-5-yl acetate [Compound 17] |  |  |  |  |  |  |  |  |  |  |  |  |  | 1.3 | 0.607 | 0.14 | 0.5 | 7 | 3 |
| (1E,4S,4aR,5R,6aS,7S)-7-(formyloxy)-11-hydroxy-4-(methoxymethyl)-4a,6a-dimethyl-2,10-dioxo-1-(pyrrolidin-1-ylmethylene)-1,2,4,4a,5,6,6a,7,8,9,9a,10-dodecahydroindeno[4,5-h]isochromen-5-yl acetate [Compound 16] |  |  |  |  |  |  |  |  |  |  |  |  |  | 8 | 1.994 | 0.08 | 0.28 | 5.5 | 1.3 |
